Reference: PubChem BioAssay (NCI)
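The compound was tested at five concentrations on cells cultured in 96-well plates, with a 48-hour exposure period. At the GI50, growth is halved. TGI: total growth inhibition.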

Tests used:
Assay in all cases: inhibition of tumour cell growth, NCI panel, 48 h
KM12 colon = system: KM12 colon
T-47D breast = system: T-47D breast
PC-3 prostate = system: PC-3 prostate
CCRF-CEM leukemia = system: CCRF-CEM leukemia
SF-539 CNS = system: SF-539 CNS
NCI/ADR-RES ovarian = system: NCI/ADR-RES ovarian
UACC-257 melanoma = system: UACC-257 melanoma
SK-MEL-5 melanoma = system: SK-MEL-5 melanoma
OVCAR-3 ovarian = system: OVCAR-3 ovarian
NCI-H460 lung = system: NCI-H460 lung

Structure (SMILES)	TGI (KM12 colon)	TGI (T-47D breast)	TGI (PC-3 prostate)	TGI (CCRF-CEM leukemia)	TGI (SF-539 CNS)	TGI (NCI/ADR-RES ovarian)	TGI (UACC-257 melanoma)	TGI (SK-MEL-5 melanoma)	TGI (OVCAR-3 ovarian)	TGI (NCI-H460 lung)	GI50 (KM12 colon)	GI50 (T-47D breast)	GI50 (PC-3 prostate)	GI50 (CCRF-CEM leukemia)	GI50 (SF-539 CNS)	GI50 (NCI/ADR-RES ovarian)	GI50 (UACC-257 melanoma)	GI50 (SK-MEL-5 melanoma)	GI50 (OVCAR-3 ovarian)	GI50 (NCI-H460 lung)
NCC(Cc1ccccc1)P(=O)(O)O (centres undefined)	> 100 µM	> 100 µM	> 100 µM	> 100 µM	> 100 µM	> 100 µM	> 100 µM	> 100 µM	> 100 µM	> 100 µM	–	–	–	–	–	–	–	–	–	–
C=C(C)[C@@H]1CC[C@]2(C(=O)n3ccnc3)CC[C@]3(C)[C@H](CC[C@@H]4[C@@]5(C)CCCNC(C)(C)[C@@H]5CC[C@]43C)[C@@H]12	3.11 µM	3.54 µM	2.67 µM	4.48 µM	3.03 µM	3.66 µM	4.09 µM	2.9 µM	3.14 µM	3.4 µM	1680 nM	1.53 µM	1.29 µM	1.88 µM	1.58 µM	1.7 µM	2.02 µM	1.56 µM	1.67 µM	1.76 µM
O=c1c2ccccc2n2cnc3ccc(NCCNCCO)c1c32	5.72 µM	22.2 µM	6.15 µM	> 47.3 µM	15.8 µM	16.5 µM	13.2 µM	5.4 µM	9.82 µM	7.58 µM	–	–	–	–	–	–	–	–	–	–
Cc1cc(-c2ccco2)cc(C)c1/C=C/c1cncc(-c2nn[nH]n2)c1	> 25 µM	> 25 µM	> 25 µM	> 25 µM	> 25 µM	> 25 µM	> 25 µM	> 25 µM	> 25 µM	> 25 µM	> 25000 nM	> 25 µM	> 25 µM	> 25 µM	> 25 µM	> 25 µM	> 25 µM	> 25 µM	> 25 µM	> 25 µM
O=[N+]([O-])c1ccc(/C=C\c2ccc3c(c2)OCO3)c([N+](=O)[O-])c1	54 µM	> 100 µM	63.4 µM	33.7 µM	39.1 µM	81.6 µM	32 µM	38.9 µM	43.1 µM	54.5 µM	–	–	–	–	–	–	–	–	–	–
CCOC(=O)c1cc2cc(OCc3ccccc3)ccc2[nH]1	> 100 µM	> 100 µM	> 100 µM	> 100 µM	> 100 µM	> 100 µM	> 100 µM	> 100 µM	> 100 µM	> 100 µM	> 100000 nM	> 100 µM	> 100 µM	> 100 µM	> 100 µM	> 100 µM	> 100 µM	> 100 µM	> 100 µM	> 100 µM
Nc1n[nH]c2ccc([C@@H]3Nc4c(F)cc5[nH]ncc5c4[C@H]4C5CCC(C5)[C@@H]34)cc12 (some centres undefined)	4.87 µM	> 100 µM	> 46.2 µM	> 52.1 µM	0.598 µM	5.84 µM	> 79.3 µM	4.94 µM	0.735 µM	> 31.9 µM	287 nM	0.509 µM	0.331 µM	0.332 µM	0.157 µM	0.234 µM	7.78 µM	0.6 µM	0.216 µM	0.352 µM
CCC1=C(c2ccc(OC)cc2)CC[C@]2(CCNC2=O)[C@@H]1C	> 91.7 µM	> 91.1 µM	> 77 µM	60.8 µM	54.8 µM	> 92.2 µM	79.1 µM	31.1 µM	61.4 µM	> 85.9 µM	–	–	–	–	–	–	–	–	–	–
O=C(O)Cn1ccc(=O)c2c([N+](=O)[O-])cccc21	> 100 µM	> 100 µM	> 100 µM	> 100 µM	> 100 µM	> 100 µM	> 100 µM	> 100 µM	> 100 µM	> 100 µM	–	–	–	–	–	–	–	–	–	–
CCOC(=O)n1c2ccccc2c(=O)n1CCO	> 100 µM	> 100 µM	> 100 µM	> 100 µM	> 100 µM	> 100 µM	> 100 µM	> 100 µM	> 100 µM	> 100 µM	–	–	–	–	–	–	–	–	–	–
Cc1cn2c(/C=C3/C(=O)Nc4ccc(C(=O)O)cc43)c(C)nc2s1	> 100 µM	> 100 µM	> 100 µM	> 100 µM	> 100 µM	> 100 µM	> 100 µM	> 100 µM	> 100 µM	> 100 µM	> 100000 nM	> 100 µM	> 100 µM	> 100 µM	> 100 µM	> 100 µM	> 100 µM	> 100 µM	> 100 µM	> 100 µM
Oc1ccc(-c2[nH]c3ccccc3c2-c2nc3ccccc3o2)cc1	6.95 µM	15.4 µM	18.5 µM	46.2 µM	22.1 µM	9.04 µM	18.3 µM	7.8 µM	9.8 µM	11.5 µM	2050 nM	3.08 µM	3.35 µM	4.91 µM	7.56 µM	2.63 µM	4.59 µM	2.16 µM	3.05 µM	3.24 µM
CC1=NN(c2nc(N)nc(/C=C\c3ccccc3)n2)C(C)(C)C1	10.5 µM	15.1 µM	19.7 µM	34.7 µM	22.4 µM	24.7 µM	20.1 µM	32.3 µM	16.1 µM	34.2 µM	1590 nM	2.5 µM	4.41 µM	2.99 µM	6.25 µM	3.75 µM	5.73 µM	16 µM	3.73 µM	13.1 µM
CCN(CC)CCS(=O)(=O)CCNc1ccnc2cc(Cl)ccc12	> 24.3 µM	48.8 µM	> 100 µM	> 38.6 µM	14.3 µM	4.73 µM	26.1 µM	10.4 µM	15.3 µM	> 25.7 µM	2410 nM	6.23 µM	3.82 µM	0.663 µM	2.93 µM	1.12 µM	5.13 µM	3.79 µM	1.47 µM	2.74 µM
CC/C(=C(/c1ccc(/C=C/C(=O)O)cc1)c1ccc2[nH]ncc2c1)c1ccc(F)cc1Cl	21.5 µM	26.9 µM	21.6 µM	30.7 µM	21.6 µM	26.5 µM	43.2 µM	21.4 µM	24.9 µM	27.7 µM	6790 nM	0.141 µM	7.95 µM	8.37 µM	7.84 µM	9.08 µM	17.4 µM	8.35 µM	11.8 µM	10.7 µM
COc1cc2c(cc1OC)C(SC)C(=O)N(Cc1cccc(OC)c1OC)CC2 (centres undefined)	40.3 µM	21.2 µM	> 69 µM	> 55.6 µM	9.13 µM	88.8 µM	32.2 µM	9.52 µM	7.03 µM	28.8 µM	–	–	–	–	–	–	–	–	–	–
CCc1ccc(C2=NN(c3ccc(S(C)(=O)=O)cc3)C(=O)CC2)cc1	> 96.1 µM	98.1 µM	> 100 µM	> 21.6 µM	11 µM	2.6 µM	55.3 µM	11.1 µM	2.36 µM	13.1 µM	817 nM	4.44 µM	2.31 µM	1.23 µM	2.3 µM	0.416 µM	1.68 µM	1.64 µM	0.385 µM	1.28 µM
COc1ccc(C(=O)/C=C/c2ccc(OCc3ccccc3)c(OC)c2)cc1OC	> 100 µM	> 100 µM	> 100 µM	71.2 µM	7.38 µM	> 100 µM	> 100 µM	17.2 µM	8.77 µM	14.4 µM	3480 nM	4.33 µM	5.11 µM	3.04 µM	2.67 µM	3.08 µM	6.25 µM	3.61 µM	2.85 µM	2.93 µM
O=C(CN(/C=C/C(=O)C(F)(F)F)c1ccccc1)c1ccc(F)cc1	69.9 µM	> 100 µM	> 100 µM	41.4 µM	63.8 µM	66 µM	93.2 µM	12.3 µM	68.7 µM	59.3 µM	24900 nM	35.3 µM	29 µM	15.8 µM	28.7 µM	23.6 µM	19.1 µM	1.34 µM	25.8 µM	22.6 µM
Cn1c(CC(O)c2nc3ccccc3n2C)nc2ccccc21 (centres undefined)	> 100 µM	> 16.7 µM	> 58.8 µM	17.3 µM	> 56 µM	> 67.9 µM	> 47.8 µM	> 42.8 µM	> 19.4 µM	> 46.9 µM	–	–	–	–	–	–	–	–	–	–
CN(c1ccc(NC(=O)NCCN2CCOCC2)cc1)c1ccnc(Nc2ccc(CS(C)(=O)=O)cc2)n1	> 25 µM	> 25 µM	> 25 µM	> 25 µM	> 25 µM	> 25 µM	> 25 µM	> 25 µM	> 25 µM	> 25 µM	12200 nM	> 23.6 µM	> 25 µM	> 25 µM	> 21.4 µM	> 25 µM	> 25 µM	> 25 µM	> 25 µM	> 25 µM
COC(=O)[C@]1(C)CCCC2(C)C3=C(CCC21)CC1(CC3)SCCS1 (some centres undefined)	> 10 µM	> 10 µM	> 10 µM	> 10 µM	> 10 µM	> 10 µM	> 10 µM	> 10 µM	> 10 µM	–	–	–	–	–	–	–	–	–	–	–
